Assay results published in the supplement of paper PMC10307832.

Tests used:
Test in all cases: relative viability (nuclei count vs DMSO), 5 days (fraction); higher = more cells survive
[1] = compound: CCN(CCO)CCCC(C)Nc1ccnc2cc(Cl)ccc12 [Hydroxychloroquine] + CS(=O)(=O)N1CCN(Cc2cc3nc(-c4cccc5[nH]ncc45)nc(N4CCOCC4)c3s2)CC1 [Pictilisib] (partner 1 µM)
How it was run: (§1)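 Cells from lung cancer lines were seeded into 1536-well plates and, one day later, dosed by pin tool. Treatments were either a single drug or a fixed dose of an anchor drug with five library-drug doses (not always all listed) in √10 steps. After 5 days, nuclei were stained in a one-step fixation (final 0.05% Triton X-100, 1% formaldehyde, 1 ug/ml Hoechst) and counted on 4× images, and relative viability is the treated-to-vehicle nuclei ratio, as the median of duplicate plates.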

[2] = compound: CCN(CCO)CCCC(C)Nc1ccnc2cc(Cl)ccc12 [Hydroxychloroquine] + CC(C)C[C@H](NC(=O)[C@H](Cc1ccccc1)NC(=O)c1cnccn1)B(O)O [Bortezomib] (partner 0.002 µM)
How it was run: as §1

[3] = compound: CCN(CCO)CCCC(C)Nc1ccnc2cc(Cl)ccc12 [Hydroxychloroquine] + COc1cc2c(Oc3ccc(NC(=O)C4(C(=O)Nc5ccc(F)cc5)CC4)cc3F)ccnc2cc1OCCCN1CCOCC1 [Foretinib] (partner 0.25 µM)
How it was run: as §1

[4] = compound: CCN(CCO)CCCC(C)Nc1ccnc2cc(Cl)ccc12 [Hydroxychloroquine] + CC(=O)c1c(C)c2cnc(Nc3ccc(N4CCNCC4)cn3)nc2n(C2CCCC2)c1=O [Palbociclib] (partner 0.5 µM)
How it was run: as §1

Cell Line | relative viability ([1]; first compound 0.5 µM) | relative viability ([1]; first compound 1.581 µM) | relative viability ([1]; first compound 5 µM) | relative viability ([1]; first compound 15.81 µM) | relative viability ([1]; first compound 50 µM) | relative viability ([2]; first compound 0.5 µM) | relative viability ([2]; first compound 1.581 µM) | relative viability ([2]; first compound 5 µM) | relative viability ([2]; first compound 15.81 µM) | relative viability ([2]; first compound 50 µM) | relative viability ([3]; first compound 0.5 µM) | relative viability ([3]; first compound 1.581 µM) | relative viability ([3]; first compound 5 µM) | relative viability ([3]; first compound 15.81 µM) | relative viability ([3]; first compound 50 µM) | relative viability ([4]; first compound 0.5 µM) | relative viability ([4]; first compound 1.581 µM) | relative viability ([4]; first compound 5 µM) | relative viability ([4]; first compound 15.81 µM) | relative viability ([4]; first compound 50 µM)
NCI-H2023 | 0.332 | 0.23 | 0.23 | 0.224 | 0.249 | 1.06 | 0.942 | 1.01 | 0.964 | 1.03 | 0.806 | 0.739 | 0.749 | 0.779 | 0.776 | 0.376 | 0.431 | 0.349 | 0.396 | 0.386
NCI-H2085 | 0.434 | 0.509 | 0.462 | 0.392 | 0.472 | 0.987 | 0.94 | 1.24 | 1.07 | 1.1 | 1.09 | 1.02 | 0.932 | 0.931 | 0.98 | 0.473 | 0.422 | 0.48 | 0.484 | 0.455
NCI-H2087 | 0.891 | 0.879 | 0.798 | 0.919 | 0.721 | 0.829 | 0.959 | 0.835 | 0.869 | 1.1 | 1.21 | 1.21 | 1.18 | 1.11 | 0.972 | 0.189 | 0.227 | 0.231 | 0.189 | 0.213
NCI-H2126 | 0.525 | 0.433 | 0.485 | 0.467 | 0.542 | 1.11 | 1.07 | 1.09 | 1.1 | 1.18 | 1.21 | 1.11 | 1.33 | 1.08 | 1.1 | 0.34 | 0.341 | 0.34 | 0.333 | 0.379
NCI-H2228 | 0.403 | 0.375 | 0.339 | 0.412 | 0.398 | 1 | 1.18 | 1 | 1.05 | 1.29 | 0.809 | 0.862 | 0.839 | 0.969 | 0.834 | 0.322 | 0.871 | 0.857 | 0.706 | 0.873
NCI-H2347 | 0.511 | 0.534 | 0.573 | 0.6 | 0.637 | 0.979 | 0.911 | 0.931 |  | 0.878 | 0.936 | 0.663 | 0.885 |  | 0.683 | 0.457 | 0.418 | 0.414 | 0.515 | 0.383
NCI-H2405 | 0.471 | 0.346 | 0.416 | 0.466 | 0.541 | 1.03 | 0.918 | 1.02 | 0.989 | 1.04 | 1.11 | 0.975 | 1.05 | 1.02 | 1.05 | 0.557 | 0.471 | 0.576 | 0.516 | 0.516
NCI-H3122 | 0.658 | 0.574 | 0.619 | 0.58 | 0.576 | 0.981 | 1.01 | 1.05 | 1.05 | 1.07 | 0.92 | 0.934 | 0.945 | 0.985 | 1.03 | 0.208 | 0.193 | 0.194 | 0.234 | 0.21
